According to patent US9315491B2 (DEVELOPMENT CENTER FOR BIOTECHNOLOGY, priority 2009, dated 2016):

Tests used:
[1] = target: PI3K (p110α/p85α) (Homo sapiens (Human), UniProt P42336); assay: PI3K HTRF enzyme assay, p110α/p85α; type: biochemical; conditions: read-out: % inhibition @ 500 nM p110α; compound at 500 nM, 10 μM ATP
Procedure: Recombinant PI3K (p110α/p85α) and PI3K (p110β/p85α) were from Millipore. […] Briefly, the compounds of interest dissolved in 100% DMSO were dispensed in all wells, following which the mixture of PIP2 and enzyme was added. PI3K (p110α/p85α) and PI3K (p110β/p85α) enzyme reactions were initiated in the presence of 10 μM and 100 μM ATP, respectively, and incubated for 30 min at room temperature. STOP solution prepared 2 hours prior to use was added to stop reactions, and mixed well. Detection solution prepared 2 hours prior to use was added, and incubated at room temperature for 17 hours in the dark. […] HTRF ration was calculated as follows: […]

[2] = target: recombinant mTOR (Homo sapiens (Human), UniProt P42345); assay: mTOR kinase assay (33P incorporation into 4EBP1); type: biochemical; conditions: compound at 10 μM, 10 μM ATP
Summary of the method: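 Recombinant human mTOR (50 ng) phosphorylated His-tagged 4EBP1 (300 ng) with 10 μM ATP plus [γ-33P]-ATP in HEPES pH 7.5, MnCl2, EGTA and DTT for 30 min at 30° C. Labelled 4EBP1 was filter-captured and counted. IC50 was derived from eight-point duplicate dilution series.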

recombinant mTOR, sequence (P42345 1360-2549): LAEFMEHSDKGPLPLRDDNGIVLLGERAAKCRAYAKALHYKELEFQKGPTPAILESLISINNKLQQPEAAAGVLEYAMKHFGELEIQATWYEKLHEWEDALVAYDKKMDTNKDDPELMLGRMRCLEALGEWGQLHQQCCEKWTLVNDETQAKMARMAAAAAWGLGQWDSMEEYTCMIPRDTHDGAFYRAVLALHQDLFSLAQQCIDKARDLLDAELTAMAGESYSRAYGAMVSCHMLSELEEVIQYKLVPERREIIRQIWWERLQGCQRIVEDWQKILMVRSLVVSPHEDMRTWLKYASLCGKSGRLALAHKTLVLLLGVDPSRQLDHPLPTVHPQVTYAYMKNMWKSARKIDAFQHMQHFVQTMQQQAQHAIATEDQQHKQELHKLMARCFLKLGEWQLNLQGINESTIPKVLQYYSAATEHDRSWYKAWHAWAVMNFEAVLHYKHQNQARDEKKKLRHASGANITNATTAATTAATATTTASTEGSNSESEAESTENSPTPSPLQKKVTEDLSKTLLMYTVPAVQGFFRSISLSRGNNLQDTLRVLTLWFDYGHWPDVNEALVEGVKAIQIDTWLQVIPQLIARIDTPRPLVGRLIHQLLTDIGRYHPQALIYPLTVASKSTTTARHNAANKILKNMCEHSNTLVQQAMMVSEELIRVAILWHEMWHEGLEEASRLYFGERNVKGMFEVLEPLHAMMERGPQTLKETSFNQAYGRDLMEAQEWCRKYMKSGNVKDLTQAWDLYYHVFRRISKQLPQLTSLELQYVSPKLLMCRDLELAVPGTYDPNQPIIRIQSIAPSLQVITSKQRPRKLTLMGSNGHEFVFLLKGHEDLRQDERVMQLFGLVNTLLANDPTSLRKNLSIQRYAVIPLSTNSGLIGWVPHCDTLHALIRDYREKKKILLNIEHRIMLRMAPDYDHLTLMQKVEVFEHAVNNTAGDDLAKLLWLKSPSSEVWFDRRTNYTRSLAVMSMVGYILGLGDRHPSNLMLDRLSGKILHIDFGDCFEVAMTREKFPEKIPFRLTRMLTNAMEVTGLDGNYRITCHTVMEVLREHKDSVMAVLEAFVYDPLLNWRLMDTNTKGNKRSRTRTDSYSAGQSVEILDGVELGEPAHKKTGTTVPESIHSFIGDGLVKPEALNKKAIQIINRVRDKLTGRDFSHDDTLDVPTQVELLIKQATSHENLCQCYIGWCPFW
PI3K (p110α/p85α), sequence (P42336 whole entry, species assumed): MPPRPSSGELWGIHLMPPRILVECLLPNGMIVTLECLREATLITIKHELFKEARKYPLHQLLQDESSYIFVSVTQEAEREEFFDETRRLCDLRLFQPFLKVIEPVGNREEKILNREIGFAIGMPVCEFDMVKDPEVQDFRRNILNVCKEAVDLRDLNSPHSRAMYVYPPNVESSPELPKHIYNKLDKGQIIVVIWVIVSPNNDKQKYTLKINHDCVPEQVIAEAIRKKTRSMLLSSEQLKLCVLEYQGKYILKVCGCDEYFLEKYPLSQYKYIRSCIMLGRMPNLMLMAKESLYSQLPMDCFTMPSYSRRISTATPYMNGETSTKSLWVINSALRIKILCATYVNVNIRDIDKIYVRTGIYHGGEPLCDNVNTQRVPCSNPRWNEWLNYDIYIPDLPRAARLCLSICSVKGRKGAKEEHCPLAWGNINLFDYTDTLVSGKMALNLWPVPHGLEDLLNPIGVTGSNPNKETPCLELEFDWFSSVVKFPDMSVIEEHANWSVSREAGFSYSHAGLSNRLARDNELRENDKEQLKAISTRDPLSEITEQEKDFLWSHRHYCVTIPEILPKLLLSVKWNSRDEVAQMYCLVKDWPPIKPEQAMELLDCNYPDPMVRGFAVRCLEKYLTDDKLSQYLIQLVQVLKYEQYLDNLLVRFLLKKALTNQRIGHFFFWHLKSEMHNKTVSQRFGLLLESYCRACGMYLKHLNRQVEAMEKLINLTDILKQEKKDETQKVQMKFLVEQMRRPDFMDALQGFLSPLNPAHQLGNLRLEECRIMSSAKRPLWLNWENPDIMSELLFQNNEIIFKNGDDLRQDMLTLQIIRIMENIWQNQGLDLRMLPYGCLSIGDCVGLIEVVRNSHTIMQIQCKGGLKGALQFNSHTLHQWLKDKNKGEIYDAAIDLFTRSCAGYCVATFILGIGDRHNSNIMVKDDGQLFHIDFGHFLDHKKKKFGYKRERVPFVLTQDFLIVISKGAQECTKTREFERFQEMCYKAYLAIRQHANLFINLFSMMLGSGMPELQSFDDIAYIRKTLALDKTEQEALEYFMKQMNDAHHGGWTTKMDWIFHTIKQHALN
PI3K (p110α/p85α), sequence (P27986 whole entry partner, species assumed): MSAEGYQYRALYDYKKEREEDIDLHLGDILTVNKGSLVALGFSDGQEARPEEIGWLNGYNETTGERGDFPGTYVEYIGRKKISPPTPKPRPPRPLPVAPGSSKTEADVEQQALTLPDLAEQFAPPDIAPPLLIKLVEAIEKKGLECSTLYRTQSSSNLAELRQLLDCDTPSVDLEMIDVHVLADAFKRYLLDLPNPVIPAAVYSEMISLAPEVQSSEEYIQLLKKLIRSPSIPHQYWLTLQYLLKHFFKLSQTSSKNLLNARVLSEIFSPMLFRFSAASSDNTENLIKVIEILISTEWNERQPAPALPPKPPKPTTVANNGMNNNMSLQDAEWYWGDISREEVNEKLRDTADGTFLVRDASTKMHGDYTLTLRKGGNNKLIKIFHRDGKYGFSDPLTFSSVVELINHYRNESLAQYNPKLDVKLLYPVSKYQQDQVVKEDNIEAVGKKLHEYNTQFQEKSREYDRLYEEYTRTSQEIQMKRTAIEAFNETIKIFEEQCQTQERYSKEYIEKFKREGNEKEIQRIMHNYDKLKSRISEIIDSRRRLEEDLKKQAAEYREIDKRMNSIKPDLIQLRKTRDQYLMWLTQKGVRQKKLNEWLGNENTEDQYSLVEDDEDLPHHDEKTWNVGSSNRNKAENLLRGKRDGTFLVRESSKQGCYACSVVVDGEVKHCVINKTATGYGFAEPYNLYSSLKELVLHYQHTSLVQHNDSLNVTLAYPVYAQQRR

Structure (SMILES) | inhibition at 0.5 µM [1] [%] | inhibition at 10 µM [2] [%]
COc1cnc(-c2ccc(NC(=O)Nc3ccc(N4CCOCC4=O)cc3)c(F)c2)nc1N1CCOCC1 [MTR-0405, 1-[2-Fluoro-4-(5-methoxy-4-morpholin-4-yl-pyrimidin-2-yl)-phenyl]-3-[4-(3-oxo-morpholin-4-yl)-phenyl]-urea] | 52.5 | –
CCOC(=O)c1nc(-c2ccc(NC(=O)Nc3ccc(C(=O)N4CCN(C)CC4)cc3)cc2)nc(N2CCOCC2)c1OCC [MTR-0274, 5-Ethoxy-2-(4-{3-[4-(4-methyl-piperazine-1-carbonyl)-phenyl]-ureido}-phenyl)-6-morpholin-4-yl-pyrimidine-4-carboxylic acid ethyl ester] | 59 | –
CSc1c(Cl)nc(-c2ccc(NC(=O)Nc3ccc(N4CCN(C)CC4)nc3)cc2)nc1N1CCOCC1 [MTR-0236, 1-[4-(4-Chloro-5-methylsulfanyl-6-morpholin-4-yl-pyrimidin-2-yl)-phenyl]-3-[6-(4-methyl-piperazin-1-yl)-pyridin-3-yl]-urea] | 61.2 | –
CSc1c(Cl)nc(-c2ccc(NC(N)=O)cc2)nc1N1CCOCC1 [MTR-0083, [4-(4-Chloro-5-methylsulfanyl-6-morpholin-4-yl-pyrimidin-2-yl)-phenyl]-urea] | 44.8 | –
CCOC(=O)c1nc(-c2ccc(NC(=O)Nc3ccc(N4CCOCC4=O)cc3)cc2)nc(N2CCOCC2)c1OCC [MTR-0222, 5-Ethoxy-6-morpholin-4-yl-2-(4-{3-[4-(3-oxo-morpholin-4-yl)-phenyl]-ureido}-phenyl)-pyrimidine-4-carboxylic acid ethyl ester] | 44.3 | –
COc1cnc(-c2ccc(NC(=O)Nc3ccccc3)cc2)nc1N1CCOCC1 [MTR-0128, 1-[4-(5-Methoxy-4-morpholin-4-yl-pyrimidin-2-yl)-phenyl]-3-phenyl-urea] | 85.8 | –
COc1cnc(-c2ccc(NC(=O)Nc3ccc(S(N)(=O)=O)cc3)cc2)nc1N1CCOCC1 [MTR-0283, 4-{3-[4-(5-Methoxy-4-morpholin-4-yl-pyrimidin-2-yl)-phenyl]-ureido}-benzenesulfonamide] | 72.9 | –
CCOc1c(C(=O)O)nc(-c2ccc(NC(=O)Nc3ccccc3)cc2)nc1N1CCOCC1 [MTR-0118, 5-Ethoxy-6-morpholin-4-yl-2-[4-(3-phenyl-ureido)-phenyl]-pyrimidine-4-carboxylic acid] | – | 94
CSc1c(-c2cccnc2)nc(-c2ccc(NC(=S)Nc3ccccc3)cc2)nc1N1CCOCC1 [MTR-0440, 1-[4-(5-Methylsulfanyl-4-morpholin-4-yl-6-pyridin-3-yl-pyrimidin-2-yl)-phenyl]-3-phenyl-thiourea] | – | 89
CCOC(=O)c1ccc(NC(=O)Nc2ccc(-c3nc(Cl)c(SC)c(N4CCOCC4)n3)cc2)cc1 [MTR-0212, 4-{3-[4-(4-Chloro-5-methylsulfanyl-6-morpholin-4-yl-pyrimidin-2-yl)-phenyl]-ureido}-benzoic acid ethyl ester] | – | 85
CCOc1cnc(-c2ccc(NC(=O)Nc3ccc(N4CCSCC4)cc3)cc2)nc1N1CCOCC1 [MTR-0324, 1-[4-(5-Ethoxy-4-morpholin-4-yl-pyrimidin-2-yl)-phenyl]-3-(4-thiomorpholin-4-yl-phenyl)-urea] | – | 81
CSc1c(Cl)nc(-c2ccc(NC(=O)Nc3ccc(N(C)C)cc3)cc2)nc1N1CCOCC1 [MTR-0123, 1-[4-(4-Chloro-5-methylsulfanyl-6-morpholin-4-yl-pyrimidin-2-yl)-phenyl]-3-(4-dimethylamino-phenyl)-urea] | – | 91
CCOc1c(C(=O)NCCN2CCOCC2)nc(-c2ccc(NC(=O)Nc3ccccc3)cc2)nc1N1CCOCC1 [MTR-0139, 5-Ethoxy-6-morpholin-4-yl-2-[4-(3-phenyl-ureido)-phenyl]-pyrimidine-4-carboxylic acid (2-morpholin-4-yl-ethyl)-amide] | – | 85
CCNC(=O)Nc1ccc(-c2ncc(OC)c(N3CCOCC3)n2)cc1 [MTR-0129, 1-Ethyl-3-[4-(5-methoxy-4-morpholin-4-yl-pyrimidin-2-yl)-phenyl]-urea] | – | 96
CCNC(=O)Nc1ccc(-c2ncc(SC)c(N3CCOCC3)n2)cc1 [MTR-0159, 1-Ethyl-3-[4-(5-methylsulfanyl-4-morpholin-4-yl-pyrimidin-2-yl)-phenyl]-urea] | – | 97
CSc1c(-c2ccncc2)nc(-c2ccc(N)cc2)nc1N1CCOCC1 [MTR-0360, 4-(5-Methylsulfanyl-4-morpholin-4-yl-6-pyridin-4-yl-pyrimidin-2-yl)-phenylamine] | – | 95
CSc1c(-c2ccncc2)nc(-c2ccc(NC(=S)Nc3ccccc3)cc2)nc1N1CCOCC1 [MTR-0468, 1-[4-(5-Methylsulfanyl-4-morpholin-4-yl-6-pyridin-4-yl-pyrimidin-2-yl)-phenyl]-3-phenyl-thiourea] | – | 97
CCOc1c(C(=O)N2CCCC2)nc(-c2ccc(NC(=O)Nc3ccccc3)cc2)nc1N1CCOCC1 [MTR-0141, 1-{4-[5-Ethoxy-4-morpholin-4-yl-6-(pyrrolidine-1-carbonyl)-pyrimidin-2-yl]-phenyl}-3-phenyl-urea] | – | 96
CSc1c(Cl)nc(-c2ccc(NC(=O)NCCCl)cc2)nc1N1CCOCC1 [MTR-0108, 1-(2-Chloro-ethyl)-3-[4-(4-chloro-5-methylsulfanyl-6-morpholin-4-yl-pyrimidin-2-yl)-phenyl]-urea] | – | 89
CCOC(=O)c1nc(-c2ccc(NC(=O)Nc3ccc4c(c3)OCO4)cc2)nc(N2CCOCC2)c1OCC [MTR-0361, 2-[4-(3-Benzo[1,3]dioxol-5-yl-ureido)-phenyl]-5-ethoxy-6-morpholin-4-yl-pyrimidine-4-carboxylic acid ethyl ester] | – | 95

The remaining lines, values ahead:

inhibition at 0.5 µM [1] [%] | inhibition at 10 µM [2] [%] | Structure (SMILES)
79.2 | – | CSc1cnc(-c2ccc(NC(=O)Nc3ccc(S(N)(=O)=O)cc3)cc2)nc1N1CCOCC1 [MTR-0288, 4-{3-[4-(5-Methylsulfanyl-4-morpholin-4-yl-pyrimidin-2-yl)-phenyl]-ureido}-benzenesulfonamide]
106 | – | CSc1c(Cl)nc(-c2ccc(NC(=O)Nc3ccc(C(=O)N4CCOCC4)cc3)cc2)nc1N1CCOCC1 [MTR-0308, 1-[4-(4-Chloro-5-methylsulfanyl-6-morpholin-4-yl-pyrimidin-2-yl)-phenyl]-3-[4-(morpholine-4-carbonyl)-phenyl]-urea]
74.4 | – | O=C(Nc1ccc(C(=O)N2CCOCC2)cc1)Nc1ccc(-c2ncc(OCCN3CCOCC3)c(N3CCOCC3)n2)cc1 [MTR-0454, 1-[4-(Morpholine-4-carbonyl)-phenyl]-3-{4-[4-morpholin-4-yl-5-(2-morpholin-4-yl-ethoxy)-pyrimidin-2-yl]-phenyl}-urea]
41.7 | – | C[S+]([O-])c1cnc(-c2ccc(NC(=O)Nc3ccc(N4CCOCC4=O)cc3)cc2)nc1N1CCOCC1 (centres unmarked) [MTR-0401, 1-[4-(5-Methanesulfinyl-4-morpholin-4-yl-pyrimidin-2-yl)-phenyl]-3-[4-(3-oxo-morpholin-4-yl)-phenyl]-urea]
– | 89 | CSc1c(Cl)nc(-c2ccc(NC(=O)Nc3ccc(Br)nc3)cc2)nc1N1CCOCC1 [MTR-0291, 1-(6-Bromo-pyridin-3-yl)-3-[4-(4-chloro-5-methylsulfanyl-6-morpholin-4-yl-pyrimidin-2-yl)-phenyl]-urea]
– | 98 | CCOC(=O)c1nc(-c2cccc(O)c2)nc(N2CCOCC2)c1OCC [MTR-0037, 5-Ethoxy-2-(3-hydroxy-phenyl)-6-morpholin-4-yl-pyrimidine-4-carboxylic acid ethyl ester]
– | 82 | CCOC(=O)c1nc(-c2ccc(NC(=O)Nc3ccc(N4CCOCC4)nc3)cc2)nc(N2CCOCC2)c1OCC [MTR-0276, 5-Ethoxy-6-morpholin-4-yl-2-{4-[3-(6-morpholin-4-yl-pyridin-3-yl)-ureido]-phenyl}-pyrimidine-4-carboxylic acid ethyl ester]
– | 93 | COc1cnc(-c2ccc(NC(=O)Nc3ccc(N4CCN(C)CC4)cn3)cc2)nc1N1CCOCC1 [MTR-0334, 1-[4-(5-Methoxy-4-morpholin-4-yl-pyrimidin-2-yl)-phenyl]-3-[5-(4-methyl-piperazin-1-yl)-pyridin-2-yl]-urea]
– | 88 | COc1cnc(-c2ccc(NC(=O)Nc3ccc(NC(C)=O)nc3)cc2)nc1N1CCOCC1 [MTR-0486, N-(5-{3-[4-(5-Methoxy-4-morpholin-4-yl-pyrimidin-2-yl)-phenyl]-ureido}-pyridin-2-yl)-acetamide]
– | 85 | CSc1c(Cl)nc(-c2ccc(NC(=O)Nc3ccc(N4CCOCC4)cn3)cc2)nc1N1CCOCC1 [MTR-0328, 1-[4-(4-Chloro-5-methylsulfanyl-6-morpholin-4-yl-pyrimidin-2-yl)-phenyl]-3-(5-morpholin-4-yl-pyridin-2-yl)-urea]
– | 88 | CSc1cnc(-c2ccc(NC(=O)Nc3ccc4[nH]c(=O)oc4c3)cc2)nc1N1CCOCC1 [MTR-0459, 1-[4-(5-Methylsulfanyl-4-morpholin-4-yl-pyrimidin-2-yl)-phenyl]-3-(2-oxo-2,3-dihydro-benzooxazol-6-yl)-urea]
– | 95 | CSc1c(-c2ccncc2)nc(-c2ccc(NC(=O)NC(C)C)cc2)nc1N1CCOCC1 [MTR-0479, 1-Isopropyl-3-[4-(5-methylsulfanyl-4-morpholin-4-yl-6-pyridin-4-yl-pyrimidin-2-yl)-phenyl]-urea]
